One block for each compound: values may come before it.
Assays:
[1] = target: T1, PKD1L3/PKD2L1 (Mus musculus, UniProt A2A259+Q2EG98, I1053S/I114V/I482V/L203V/Q202H/Y438D); experiment: Calcium imaging (fluo-4/fura-red) of HEK293T cells transiently co-expressing PKD1L3 and PKD2L1; type: cell-based, murine; details: for calcium response upon stimulation: pH 2.6
T1 construct: HA (N); expressed in transfected cells; host or cells: HEK293T

[2] = at the same pH (Ganzevles and Kroeze, 1987; Makhlouf and Bum, 1972); cited from earlier work
[3] = tested on: either PKD1L3 or PKD2L1, or neither of them; experiment: Calcium imaging of HEK293T cells expressing PKD1L3 or PKD2L1 alone, or neither; type: cell-based, murine; details: treated with citric acid
[4] = tested on: taste cells; details: cited from earlier work
[5] = cells expressing both PKD1L3 and PKD2L1, citric acid 25 mM, hydrochloric acid at the same pH

T1 sequence (Q2EG98 21-2151 I1053S): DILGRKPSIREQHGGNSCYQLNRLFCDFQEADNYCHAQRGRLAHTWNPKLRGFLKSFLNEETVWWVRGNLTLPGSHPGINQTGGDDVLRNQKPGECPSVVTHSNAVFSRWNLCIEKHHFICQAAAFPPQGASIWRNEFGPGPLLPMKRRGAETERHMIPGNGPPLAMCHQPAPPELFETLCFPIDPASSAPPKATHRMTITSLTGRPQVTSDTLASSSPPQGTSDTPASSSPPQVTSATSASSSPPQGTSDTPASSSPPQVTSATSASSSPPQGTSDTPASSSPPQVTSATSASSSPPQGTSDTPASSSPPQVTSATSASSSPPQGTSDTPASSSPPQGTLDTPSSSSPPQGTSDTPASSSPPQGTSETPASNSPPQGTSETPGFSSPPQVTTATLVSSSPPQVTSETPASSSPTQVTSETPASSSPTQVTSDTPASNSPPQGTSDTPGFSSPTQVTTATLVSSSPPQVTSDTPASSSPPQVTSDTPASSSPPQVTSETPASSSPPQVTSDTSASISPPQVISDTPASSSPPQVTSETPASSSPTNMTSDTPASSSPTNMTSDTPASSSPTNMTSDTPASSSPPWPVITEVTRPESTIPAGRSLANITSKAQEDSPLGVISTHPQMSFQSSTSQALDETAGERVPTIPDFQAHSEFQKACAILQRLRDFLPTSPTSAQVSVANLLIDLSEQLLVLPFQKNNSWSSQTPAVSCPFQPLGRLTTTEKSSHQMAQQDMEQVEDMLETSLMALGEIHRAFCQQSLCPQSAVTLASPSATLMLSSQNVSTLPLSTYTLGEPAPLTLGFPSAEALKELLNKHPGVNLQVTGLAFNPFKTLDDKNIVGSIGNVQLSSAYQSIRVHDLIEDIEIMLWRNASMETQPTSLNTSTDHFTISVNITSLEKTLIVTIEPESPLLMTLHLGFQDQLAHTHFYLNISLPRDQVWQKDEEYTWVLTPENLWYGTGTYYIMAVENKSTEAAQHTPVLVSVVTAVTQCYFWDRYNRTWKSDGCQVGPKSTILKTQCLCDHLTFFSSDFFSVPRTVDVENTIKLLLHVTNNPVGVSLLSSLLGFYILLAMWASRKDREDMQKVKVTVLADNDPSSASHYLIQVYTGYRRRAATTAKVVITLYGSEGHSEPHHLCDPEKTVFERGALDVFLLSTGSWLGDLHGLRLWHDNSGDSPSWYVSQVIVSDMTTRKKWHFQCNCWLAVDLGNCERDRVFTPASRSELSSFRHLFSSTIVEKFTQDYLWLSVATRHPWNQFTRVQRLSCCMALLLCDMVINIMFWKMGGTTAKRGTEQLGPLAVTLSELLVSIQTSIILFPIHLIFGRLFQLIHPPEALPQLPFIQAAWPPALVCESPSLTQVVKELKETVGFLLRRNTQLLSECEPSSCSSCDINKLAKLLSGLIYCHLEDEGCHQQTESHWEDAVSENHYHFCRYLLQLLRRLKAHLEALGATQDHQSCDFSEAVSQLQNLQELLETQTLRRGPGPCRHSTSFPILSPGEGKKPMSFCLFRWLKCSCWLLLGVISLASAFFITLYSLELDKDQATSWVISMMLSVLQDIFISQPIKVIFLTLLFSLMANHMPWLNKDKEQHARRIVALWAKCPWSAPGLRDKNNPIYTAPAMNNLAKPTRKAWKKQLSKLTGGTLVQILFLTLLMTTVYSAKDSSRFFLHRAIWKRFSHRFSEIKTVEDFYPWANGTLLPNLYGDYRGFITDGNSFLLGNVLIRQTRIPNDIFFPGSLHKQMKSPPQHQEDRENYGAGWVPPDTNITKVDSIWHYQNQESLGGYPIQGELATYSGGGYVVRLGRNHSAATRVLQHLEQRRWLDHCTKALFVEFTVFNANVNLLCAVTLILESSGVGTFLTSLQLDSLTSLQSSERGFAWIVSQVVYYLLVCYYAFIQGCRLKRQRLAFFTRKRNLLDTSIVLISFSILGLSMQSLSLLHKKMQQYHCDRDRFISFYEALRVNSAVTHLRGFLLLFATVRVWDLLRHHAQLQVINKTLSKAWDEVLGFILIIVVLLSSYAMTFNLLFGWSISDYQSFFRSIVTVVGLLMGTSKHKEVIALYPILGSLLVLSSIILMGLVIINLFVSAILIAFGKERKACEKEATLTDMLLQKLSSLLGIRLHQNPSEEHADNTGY
T1 sequence (A2A259 whole entry I114V/Q202H/L203V/Y438D/I482V): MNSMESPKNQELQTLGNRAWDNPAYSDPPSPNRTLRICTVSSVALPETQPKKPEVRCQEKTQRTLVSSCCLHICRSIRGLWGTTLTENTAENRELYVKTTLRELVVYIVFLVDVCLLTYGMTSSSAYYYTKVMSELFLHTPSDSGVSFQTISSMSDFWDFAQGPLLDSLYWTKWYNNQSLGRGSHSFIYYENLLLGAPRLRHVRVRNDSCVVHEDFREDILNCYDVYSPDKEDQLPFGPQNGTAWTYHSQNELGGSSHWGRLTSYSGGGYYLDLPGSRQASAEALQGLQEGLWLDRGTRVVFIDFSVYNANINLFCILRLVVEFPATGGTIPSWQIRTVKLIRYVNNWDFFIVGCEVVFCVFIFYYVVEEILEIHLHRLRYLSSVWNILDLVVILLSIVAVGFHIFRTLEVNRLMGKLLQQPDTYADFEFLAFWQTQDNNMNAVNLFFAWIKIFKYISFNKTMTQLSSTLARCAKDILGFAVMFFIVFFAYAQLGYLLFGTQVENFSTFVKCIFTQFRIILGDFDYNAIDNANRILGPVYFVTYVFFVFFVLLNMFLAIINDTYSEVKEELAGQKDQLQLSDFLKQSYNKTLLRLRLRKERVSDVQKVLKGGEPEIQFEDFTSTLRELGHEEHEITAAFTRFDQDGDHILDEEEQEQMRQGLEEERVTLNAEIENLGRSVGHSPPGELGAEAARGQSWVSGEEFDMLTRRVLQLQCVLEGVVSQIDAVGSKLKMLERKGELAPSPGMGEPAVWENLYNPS

calcium response upon stimulation [1, 5]: did not respond
Structure (SMILES): O=C1NS(=O)(=O)c2ccccc21 [saccharin]

Structure (SMILES): Cl [hydrochloric acid]
calcium response upon stimulation [1]: much less of a calcium response

Structure (SMILES): CC(=O)O [acetic acid]
sour taste relative to hydrochloric acid [2]: more sour than hydrochloric acid

Structure (SMILES): [Cl-].[Na+] [NaCl]
calcium response upon stimulation [1]: did not respond

calcium response upon stimulation [1, 5]: did not respond
Structure (SMILES): C=C[C@H]1C[N@@]2CC[C@H]1C[C@H]2[C@H](O)c1ccnc2ccc(OC)cc12 [quinine]

potency in activating PKD1L3/PKD2L1 heteromers relative to hydrochloric acid ([1]; at the same pH): more potent than hydrochloric acid
calcium response upon stimulation [1, 5]: responded
calcium response with extracellular calcium ions eliminated from the bath solution ([1]; cells expressing both proteins, no extracellular calcium): abolished
Structure (SMILES): O=C(O)CC(O)(CC(=O)O)C(=O)O [citric acid]
calcium response upon stimulation [3]: little or no calcium response
taste cells activated ([4]; calcium imaging of taste bud slices (Caicedo et al., 2002; Richter et al., 2003)): 23-25%
potency as sour ligand relative to hydrochloric acid ([4]; mouse taste tissue slices, same pH (Richter et al., 2003)): more potent sour ligand than hydrochloric acid
sour taste relative to hydrochloric acid [2]: more sour than hydrochloric acid

inhibition of function of the two protein heteromer ([1]; ASIC inhibitor / HCN inhibitor applied): not inhibited
Structure (SMILES): N=C(N)NC(=O)c1nc(Cl)c(N)nc1N [amiloride]

Structure (SMILES): C[C@@H]1C[C@@H]([C@H](O)CC2CC(=O)NC(=O)C2)C(=O)[C@@H](C)C1 [cyclohexamide]
calcium response upon stimulation [1]: did not respond

calcium response upon stimulation [1, 5]: did not respond
Structure (SMILES): OC[C@H]1O[C@@](CO)(O[C@H]2O[C@H](CO)[C@@H](O)[C@H](O)[C@H]2O)[C@@H](O)[C@@H]1O [sucrose]
